# Key:
# [1] = tested on: LOX IMVI; experiment: NCI60 one-dose screen (10 μM), Melanoma; type: cell-based, human; details: Homo sapiens; 10 μM; LOX IMVI, Melanoma; read-out: Growth percent rate
# [2] = tested on: UACC-257; experiment: NCI60 one-dose screen (10 μM), Melanoma; type: cell-based; details: Homo sapiens; 10 μM; UACC-257, Melanoma; read-out: Growth percent rate
# [3] = tested on: SNB-19; experiment: NCI60 one-dose screen (10 μM), CNS Cancer; type: cell-based; details: Homo sapiens; 10 μM; SNB-19, CNS Cancer; read-out: Growth percent rate
# [4] = tested on: 60 human tumor cell lines (NCI60); experiment: NCI60 one-dose screen (10 μM), whole panel; type: cell-based; details: 10 μM; mean over 60 human cancer cell lines; read-out: Growth percent rate, Mean
# [5] = tested on: HCC-2998; experiment: NCI60 one-dose screen (10 μM), Colon Cancer; type: cell-based; details: Homo sapiens; 10 μM; HCC-2998, Colon Cancer; read-out: Growth percent rate
# [6] = tested on: OVCAR-3; experiment: NCI60 one-dose screen (10 μM), Ovarian Cancer; type: cell-based; details: Homo sapiens; 10 μM; OVCAR-3, Ovarian Cancer; read-out: Growth percent rate
# [7] = tested on: K-562; experiment: NCI60 one-dose screen (10 μM), Leukemia; type: cell-based; details: Homo sapiens, K562; 10 μM; K-562, Leukemia; read-out: Growth percent rate
# [8] = tested on: HCT-15; experiment: NCI60 one-dose screen (10 μM), Colon Cancer; type: cell-based; details: Homo sapiens; 10 μM; HCT-15, Colon Cancer; read-out: Growth percent rate
# [9] = tested on: SN12C; experiment: NCI60 one-dose screen (10 μM), Renal Cancer; type: cell-based; details: Homo sapiens, 10 μM, Renal Cancer, read-out: Growth percent rate
# [10] = tested on: CCRF-CEM; experiment: NCI60 one-dose screen (10 μM), Leukemia; type: cell-based; details: Homo sapiens, 10 μM, Leukemia, read-out: Growth percent rate
# [11] = tested on: HT29; experiment: NCI60 one-dose screen (10 μM), Colon Cancer; type: cell-based; details: Homo sapiens, HT-29; 10 μM; HT29, Colon Cancer; read-out: Growth percent rate
# [12] = tested on: IGROV1; experiment: NCI60 one-dose screen (10 μM), Ovarian Cancer; type: cell-based; details: Homo sapiens, IGROV-1; 10 μM; IGROV1, Ovarian Cancer; read-out: Growth percent rate
# [13] = tested on: OVCAR-4; experiment: NCI60 one-dose screen (10 μM), Ovarian Cancer; type: cell-based; details: Homo sapiens; 10 μM; OVCAR-4, Ovarian Cancer; read-out: Growth percent rate
# [14] = tested on: COLO 205; experiment: NCI60 one-dose screen (10 μM), Colon Cancer; type: cell-based, human; details: Homo sapiens; 10 μM; COLO 205, Colon Cancer; read-out: Growth percent rate
# [15] = tested on: MOLT-4; experiment: NCI60 one-dose screen (10 μM), Leukemia; type: cell-based, human; details: Homo sapiens; 10 μM; MOLT-4, Leukemia; read-out: Growth percent rate
# [16] = tested on: SF-539; experiment: NCI60 one-dose screen (10 μM), CNS Cancer; type: cell-based, human; details: Homo sapiens; 10 μM; SF-539, CNS Cancer; read-out: Growth percent rate
# [17] = tested on: NCI-H460; experiment: NCI60 one-dose screen (10 μM), Non-small Cell Lung Cancer; type: cell-based; details: Homo sapiens; 10 μM; NCI-H460, Non-small Cell Lung Cancer; read-out: Growth percent rate
# [18] = tested on: SW-620; experiment: NCI60 one-dose screen (10 μM), Colon Cancer; type: cell-based; details: Homo sapiens; 10 μM; SW-620, Colon Cancer; read-out: Growth percent rate
# [19] = tested on: NCI-H322M; experiment: NCI60 one-dose screen (10 μM), Non-small Cell Lung Cancer; type: cell-based; details: Homo sapiens, 10 μM, Non-small Cell Lung Cancer, read-out: Growth percent rate
# [20] = tested on: A549/ATCC; experiment: as above; type: cell-based; details: Homo sapiens; 10 μM; A549/ATCC, Non-small Cell Lung Cancer; read-out: Growth percent rate
# [21] = tested on: SF-295; experiment: NCI60 one-dose screen (10 μM), CNS Cancer; type: cell-based; details: Homo sapiens; 10 μM; SF-295, CNS Cancer; read-out: Growth percent rate
# [22] = tested on: CAKI-1; experiment: NCI60 one-dose screen (10 μM), Renal Cancer; type: cell-based; details: Homo sapiens; 10 μM; CAKI-1, Renal Cancer; read-out: Growth percent rate
# [23] = tested on: HL-60(TB); experiment: NCI60 one-dose screen (10 μM), Leukemia; type: cell-based; details: Homo sapiens; 10 μM; HL-60(TB), Leukemia; read-out: Growth percent rate
# [24] = tested on: HCT-116; experiment: NCI60 one-dose screen (10 μM), Colon Cancer; type: cell-based; details: Homo sapiens; 10 μM; HCT-116, Colon Cancer; read-out: Growth percent rate
# [25] = tested on: SK-MEL-2; experiment: NCI60 one-dose screen (10 μM), Melanoma; type: cell-based; details: Homo sapiens; 10 μM; SK-MEL-2, Melanoma; read-out: Growth percent rate
# [26] = tested on: SF-268; experiment: NCI60 one-dose screen (10 μM), CNS Cancer; type: cell-based; details: Homo sapiens; 10 μM; SF-268, CNS Cancer; read-out: Growth percent rate
# [27] = tested on: MDA-MB-435; experiment: NCI60 one-dose screen (10 μM), Melanoma; type: cell-based; details: Homo sapiens; 10 μM; MDA-MB-435, Melanoma; read-out: Growth percent rate
# [28] = tested on: NCI-H23; experiment: NCI60 one-dose screen (10 μM), Non-small Cell Lung Cancer; type: cell-based; details: Homo sapiens; 10 μM; NCI-H23, Non-small Cell Lung Cancer; read-out: Growth percent rate
# [29] = tested on: DU-145; experiment: NCI60 one-dose screen (10 μM), Prostate Cancer; type: cell-based; details: Homo sapiens; 10 μM; DU-145, Prostate Cancer; read-out: Growth percent rate
# [30] = tested on: SNB-75; experiment: NCI60 one-dose screen (10 μM), CNS Cancer; type: cell-based, human; details: Homo sapiens; 10 μM; SNB-75, CNS Cancer; read-out: Growth percent rate
# [31] = tested on: SK-MEL-28; experiment: NCI60 one-dose screen (10 μM), Melanoma; type: cell-based; details: Homo sapiens; 10 μM; SK-MEL-28, Melanoma; read-out: Growth percent rate
# [32] = tested on: 786–0; experiment: NCI60 one-dose screen (10 μM), Renal Cancer; type: cell-based; details: Homo sapiens; 10 μM; 786-0, Renal Cancer; read-out: Growth percent rate
# [33] = tested on: NCI-H522; experiment: NCI60 one-dose screen (10 μM), Non-small Cell Lung Cancer; type: cell-based; details: Homo sapiens; 10 μM; NCI-H522, Non-small Cell Lung Cancer; read-out: Growth percent rate
# [34] = tested on: EKVX; experiment: as above; type: cell-based; details: Homo sapiens, 10 μM, Non-small Cell Lung Cancer, read-out: Growth percent rate
# [35] = tested on: KM12; experiment: NCI60 one-dose screen (10 μM), Colon Cancer; type: cell-based, human; details: Homo sapiens; 10 μM; KM12, Colon Cancer; read-out: Growth percent rate
# [36] = tested on: M14; experiment: NCI60 one-dose screen (10 μM), Melanoma; type: cell-based; details: Homo sapiens; 10 μM; M14, Melanoma; read-out: Growth percent rate
# [37] = tested on: RXF 393; experiment: NCI60 one-dose screen (10 μM), Renal Cancer; type: cell-based, human; details: Homo sapiens; 10 μM; RXF 393, Renal Cancer; read-out: Growth percent rate
# [38] = tested on: MCF7; experiment: NCI60 one-dose screen (10 μM), Breast Cancer; type: cell-based; details: Homo sapiens; 10 μM; MCF7, Breast Cancer; read-out: Growth percent rate
# [39] = tested on: SK-MEL-5; experiment: NCI60 one-dose screen (10 μM), Melanoma; type: cell-based, human; details: Homo sapiens; 10 μM; SK-MEL-5, Melanoma; read-out: Growth percent rate
# [40] = tested on: ACHN; experiment: NCI60 one-dose screen (10 μM), Renal Cancer; type: cell-based; details: Homo sapiens, 10 μM, Renal Cancer, read-out: Growth percent rate
# [41] = tested on: MALME-3M; experiment: NCI60 one-dose screen (10 μM), Melanoma; type: cell-based; details: Homo sapiens; 10 μM; MALME-3M, Melanoma; read-out: Growth percent rate
# [42] = tested on: OVCAR-8; experiment: NCI60 one-dose screen (10 μM), Ovarian Cancer; type: cell-based; details: Homo sapiens; 10 μM; OVCAR-8, Ovarian Cancer; read-out: Growth percent rate
smiles,measurement,setting,value
CCC12C=CCN3CCC4(c5cc(NC(=O)CN6CCN(C(=O)c7ccco7)CC6)c(OC)cc5N(C)C4C(O)(C(=O)OC)C1OC(C)=O)C32 (stereo not drawn) [Compound 21],activity at 10 µM,[1],98.5%
same,activity at 10 µM,[2],106%
same,activity at 10 µM,[3],96.2%
same,activity at 10 µM,[4],108%
same,activity at 10 µM,[5],126%
same,activity at 10 µM,[6],118%
same,activity at 10 µM,[7],108%
same,activity at 10 µM,[8],107%
same,activity at 10 µM,[9],107%
same,activity at 10 µM,[10],103%
same,activity at 10 µM,[11],109%
same,activity at 10 µM,[12],127%
same,activity at 10 µM,[13],108%
same,activity at 10 µM,[14],120%
same,activity at 10 µM,[15],101%
same,activity at 10 µM,[16],114%
same,activity at 10 µM,[17],108%
same,activity at 10 µM,[18],113%
same,activity at 10 µM,[19],110%
same,activity at 10 µM,[20],101%
same,activity at 10 µM,[21],110%
same,activity at 10 µM,[22],97.5%
same,activity at 10 µM,[23],114%
same,activity at 10 µM,[24],108%
same,activity at 10 µM,[25],111%
same,activity at 10 µM,[26],106%
same,activity at 10 µM,[27],104%
same,activity at 10 µM,[28],106%
same,activity at 10 µM,[29],110%
same,activity at 10 µM,[30],91%
same,activity at 10 µM,[31],126%
same,activity at 10 µM,[32],104%
same,activity at 10 µM,[33],98.2%
same,activity at 10 µM,[34],99.2%
same,activity at 10 µM,[35],99.8%
same,activity at 10 µM,[36],110%
same,activity at 10 µM,[37],133%
same,activity at 10 µM,[38],98.3%
same,activity at 10 µM,[39],105%
same,activity at 10 µM,[40],109%
same,activity at 10 µM,[41],104%
same,activity at 10 µM,[42],101%
CC[C@]12C=CCN3CC[C@@]4(c5ccc(OC)cc5N(C)[C@H]4[C@@](O)(C(=O)OC)[C@@H]1OC(=O)CCC(=O)N1CCN(C)CC1)[C@@H]32 [Compound 27],activity at 10 µM,[1],93%
same,activity at 10 µM,[2],99.2%
same,activity at 10 µM,[3],108%
same,activity at 10 µM,[4],99.5%
same,activity at 10 µM,[5],86.5%
same,activity at 10 µM,[6],89.2%
same,activity at 10 µM,[7],124%
same,activity at 10 µM,[8],103%
same,activity at 10 µM,[9],86.7%
same,activity at 10 µM,[10],104%
same,activity at 10 µM,[11],96.7%
same,activity at 10 µM,[12],96.8%
same,activity at 10 µM,[13],105%
same,activity at 10 µM,[14],118%
same,activity at 10 µM,[15],100%
same,activity at 10 µM,[16],100%
same,activity at 10 µM,[17],102%
same,activity at 10 µM,[18],105%
same,activity at 10 µM,[19],110%
same,activity at 10 µM,[20],94.2%
same,activity at 10 µM,[21],97.9%
same,activity at 10 µM,[22],96.6%
same,activity at 10 µM,[23],112%
same,activity at 10 µM,[24],103%
same,activity at 10 µM,[25],88.2%
same,activity at 10 µM,[26],99.5%
same,activity at 10 µM,[27],121%
same,activity at 10 µM,[28],98.9%
same,activity at 10 µM,[29],103%
same,activity at 10 µM,[30],64.3%
same,activity at 10 µM,[31],94.8%
same,activity at 10 µM,[32],99.7%
same,activity at 10 µM,[33],84.5%
same,activity at 10 µM,[34],90.7%
same,activity at 10 µM,[35],100%
same,activity at 10 µM,[36],114%
same,activity at 10 µM,[37],82.3%
same,activity at 10 µM,[38],81%
same,activity at 10 µM,[39],91.5%
same,activity at 10 µM,[40],99.2%
same,activity at 10 µM,[41],112%
same,activity at 10 µM,[42],99.6%

# Reference: publication PMC11277489, “Novel Piperazine Derivatives of Vindoline as Anticancer Agents” (International Journal of Molecular Sciences, 2024)
